Values after ≈ are worked out from the molar mass of the structure shown. Values joined by “and” are separate entries in the source; they are usually repeats but may differ in a detail not shown here. Identical values can stand only once.
Key:
[1] = mouse; liver_microsomes
[2] = mdck_mdr1
[3] = human; liver_microsomes
[4] = not given; remark: listed apart in the source

Structure (SMILES) | microsomal CLint [1] | Papp [2] | solubility kinetic | microsomal CLint [3] | logD [4]
O=C(Nc1cc(Br)c2c(c1)CNC2)c1cc(F)cc2[nH]ncc12 | 145 µL/min/mg | 34 nm/s | 4 µM (≈ 1.5 µg/mL) | 13.6 µL/min/mg | 1.8
CNC(=O)Cn1cc(-c2cc3c(N[C@H](c4ccc5c(c4)OCCO5)C(C)C)ncnc3[nH]2)cn1 (racemic) | 47 µL/min/mg | 19.4 nm/s | 289 µM (≈ 133 µg/mL) | 119 µL/min/mg | 2.9
CNC(=O)c1cc2c(N[C@H](c3ccc4c(c3)OCCO4)C(C)C)ncnc2[nH]1 (racemic) | 55 µL/min/mg | 19.6 nm/s | 380 µM (≈ 145 µg/mL) | 79 µL/min/mg | 2.76
CC(C)[C@H](Nc1ncnc2[nH]c(-c3cnn(C)c3C#N)cc12)c1ccc2c(n1)NC(=O)CO2 (single isomer, unassigned) | 131 µL/min/mg and 189 µL/min/mg | 93.5 nm/s and 96.4 nm/s | 28 µM (≈ 12.4 µg/mL) | 137 µL/min/mg and 51 µL/min/mg | 3.7
CC(C)[C@H](Nc1ncnc2[nH]c(-c3cnn(C)c3C#N)cc12)c1ccc2c(n1)NC(=O)CO2 (racemic) | 145 µL/min/mg | 98.3 nm/s | 29 µM (≈ 12.9 µg/mL) | 70 µL/min/mg | 3.7
COc1ccc([C@H](Cc2nnn[nH]2)NC(=O)c2ncnc3[nH]ccc23)cc1 (single isomer, unassigned) | 7 µL/min/mg | 10.7 nm/s | 367 µM (≈ 134 µg/mL) | 2 µL/min/mg | -0.5
CC(C)[C@H](Nc1ncnc2[nH]c(-c3ccc4nnn(C)c4c3)cc12)c1ccc2c(c1)S(=O)(=O)CCC2 (racemic) | 219 µL/min/mg | 8.27 nm/s | 6 µM (≈ 3.01 µg/mL) | 752 µL/min/mg | 3.4
CCNC(=O)c1cc2c(N[C@H](c3ccc4c(c3)S(=O)(=O)CCC4)C(C)C)ncnc2[nH]1 (racemic) | 85 µL/min/mg | 7 nm/s | 336 µM (≈ 148 µg/mL) | 108 µL/min/mg | 2.8
CC(C)[C@H](Nc1ncnc2[nH]ccc12)c1ccc2c(c1)S(=O)(=O)CCO2 (racemic) | 69 µL/min/mg | 44 nm/s | 372 µM (≈ 139 µg/mL) | 18 µL/min/mg | 2.6
CC(C)(C)[C@H](Nc1ncnc2[nH]c(-c3cnn(CC(N)=O)c3)cc12)c1ccc2c(n1)OCCO2 (racemic) | 31 µL/min/mg | 8.22 nm/s | 48 µM (≈ 22.2 µg/mL) | 36 µL/min/mg | 2.7
CC(C)(C)[C@H](Nc1ncnc2[nH]c(-c3cnn(CC(N)=O)c3)cc12)c1ccc2c(n1)OCCO2 (single isomer, unassigned) | 10 µL/min/mg and 30 µL/min/mg | 10.2 nm/s and 15.3 nm/s | 372 µM and 390 µM | 27 µL/min/mg and 42 µL/min/mg | 2.7 and 2.9
COc1ccc([C@H](NC(=O)c2ncnc3[nH]ccc23)C(C)c2nnn[nH]2)cc1 (mixture of isomers) | 1 µL/min/mg | 11.3 nm/s |  | 2 µL/min/mg | 0
CC(C)[C@H](Nc1ncnc2[nH]c(-c3cnn(C)c3C#N)cc12)c1ccc2c(c1)S(=O)(=O)CCC2 (single isomer, unassigned) | 311 µL/min/mg and 709 µL/min/mg | 43.3 nm/s and 18.2 nm/s | 22 µM and 26 µM | 935 µL/min/mg and 516 µL/min/mg | 3.3 and 3.7
CC(C)[C@H](Nc1ncnc2[nH]c(-c3cnn(CC(N)=O)c3)cc12)c1ccc2c(c1)S(=O)(=O)CCC2 (single isomer, unassigned) | 39 µL/min/mg and 96 µL/min/mg | 19.8 nm/s and 7.19 nm/s | 338 µM and 335 µM | 240 µL/min/mg and 115 µL/min/mg | 2.1 and 2
CC(C)[C@H](Nc1ncnc2[nH]c(-c3cnn(CC(N)=O)c3)cc12)c1ccc2c(c1)OCCO2 (racemic) | 41 µL/min/mg | 9 nm/s | 345 µM (≈ 154 µg/mL) | 99 µL/min/mg | 0.9
CNCc1cc(-c2cc3c(N[C@H](c4ccc5c(c4)S(=O)(=O)NCC5)C(C)C)ncnc3[nH]2)co1 (racemic) | 42 µL/min/mg | 12 nm/s | 372 µM (≈ 179 µg/mL) | 46 µL/min/mg | 1.9
CNC(=O)c1c[nH]c2ncnc(N[C@H](c3ccc4c(c3)NC(=O)CO4)C(C)C)c12 (racemic) | 113 µL/min/mg | 42.6 nm/s | 28 µM (≈ 11 µg/mL) | 86 µL/min/mg | 3.2
O=C(Nc1ccc2c(c1)CNC2)c1cc(Br)cc2[nH]c(-c3ccccc3)nc12 | 43.8 µL/min/mg | 0.942 nm/s |  | 12.8 µL/min/mg | 3.6
C[C@H](C(=O)O)[C@H](NC(=O)c1ncnc2[nH]ccc12)c1ccc(Br)cc1 (mixture of isomers) | 4 µL/min/mg | 14 nm/s | 386 µM | 5 µL/min/mg | 0.5
CC(C)[C@H](CO)Nc1ncnc2[nH]ccc12 | 10 µL/min/mg | 131 nm/s |  | 6 µL/min/mg | 1.69
